From the NIST ThermoML archive (doi:10.1016/j.jct.2012.03.020)

Assays:
[1] = refractive index (Na D-line) (dimensionless); mn = molality of the nth substance listed, in mol/kg; settings: 101 kPa, Liquid, Standard Abbe refractometry
[2] = mn = molality of the nth substance listed, in mol/kg; settings: 101 kPa, Liquid, Pycnometric method

O=C(c1ccc([N+](=O)[O-])cc1)N(O)c1ccccc1 [N-hydroxy-4-nitro-N-phenylbenzamide] + CN(C)C=O
Settings | mass density, 298.15 K [kg/m3] | mass density, 303.15 K [kg/m3] | mass density, 308.15 K [kg/m3] | mass density, 313.15 K [kg/m3] | refractive index, 298.15 K | refractive index, 303.15 K | refractive index, 308.15 K | refractive index, 313.15 K
[1], m1 = 0.0234 | – | – | – | – | 1.428 | 1.4264 | 1.4242 | 1.4223
[1], m1 = 0.0469 | – | – | – | – | 1.4289 | 1.4274 | 1.4254 | 1.4235
[1], m1 = 0.0703 | – | – | – | – | 1.4294 | 1.4279 | 1.4259 | 1.4244
[1], m1 = 0.0938 | – | – | – | – | 1.4299 | 1.4285 | 1.4266 | 1.4249
[1], m1 = 0.1172 | – | – | – | – | 1.43 | 1.429 | 1.4271 | 1.4258
[1], m1 = 0.1407 | – | – | – | – | 1.4305 | 1.4295 | 1.4276 | 1.4266
[1], m1 = 0.1641 | – | – | – | – | 1.4315 | 1.4302 | 1.4286 | 1.4271
[1], m1 = 0.1876 | – | – | – | – | 1.4325 | 1.4311 | 1.4292 | 1.4275
[1], m1 = 0.211 | – | – | – | – | 1.4329 | 1.4319 | 1.4301 | 1.4284
[1], m1 = 0.2345 | – | – | – | – | 1.433 | 1.4322 | 1.4304 | 1.4291
[2], m1 = 0.0234 | 947.5 | 942.1 | 938.1 | 932.8 | – | – | – | –
[2], m1 = 0.0469 | 949.7 | 944.4 | 940.5 | 935.3 | – | – | – | –
[2], m1 = 0.0703 | 951.9 | 946.7 | 942.8 | 937.7 | – | – | – | –
[2], m1 = 0.0938 | 954 | 948.9 | 945.1 | 940 | – | – | – | –
[2], m1 = 0.1172 | 956.1 | 951.1 | 947.3 | 942.3 | – | – | – | –
[2], m1 = 0.1407 | 958.2 | 953.2 | 949.5 | 944.5 | – | – | – | –
[2], m1 = 0.1641 | 960.2 | 955.3 | 951.6 | 946.7 | – | – | – | –
[2], m1 = 0.1876 | 962.2 | 957.4 | 953.7 | 948.8 | – | – | – | –
[2], m1 = 0.211 | 964.2 | 959.4 | 955.8 | 950.8 | – | – | – | –
[2], m1 = 0.2345 | 966.1 | 961.4 | 957.8 | 952.9 | – | – | – | –

O=C(c1ccccc1)N(O)c1ccccc1 [N-phenylbenzohydroxamic acid] + CN(C)C=O
Settings | mass density, 298.15 K [kg/m3] | mass density, 303.15 K [kg/m3] | mass density, 308.15 K [kg/m3] | mass density, 313.15 K [kg/m3] | refractive index, 298.15 K | refractive index, 303.15 K | refractive index, 308.15 K | refractive index, 313.15 K
[1], m1 = 0.0234 | – | – | – | – | 1.4275 | 1.426 | 1.4238 | 1.422
[1], m1 = 0.0469 | – | – | – | – | 1.4277 | 1.4269 | 1.4249 | 1.423
[1], m1 = 0.0703 | – | – | – | – | 1.428 | 1.4271 | 1.4259 | 1.424
[1], m1 = 0.0938 | – | – | – | – | 1.4285 | 1.4274 | 1.4266 | 1.425
[1], m1 = 0.1172 | – | – | – | – | 1.4288 | 1.4275 | 1.427 | 1.4261
[1], m1 = 0.1407 | – | – | – | – | 1.4289 | 1.428 | 1.4273 | 1.4265
[1], m1 = 0.1641 | – | – | – | – | 1.4295 | 1.4285 | 1.4276 | 1.4271
[1], m1 = 0.1876 | – | – | – | – | 1.43 | 1.4289 | 1.428 | 1.4273
[1], m1 = 0.211 | – | – | – | – | 1.4305 | 1.4295 | 1.4282 | 1.4274
[1], m1 = 0.2345 | – | – | – | – | 1.431 | 1.43 | 1.4288 | 1.4275
[2], m1 = 0.0234 | 947.5 | 942.1 | 938.1 | 932.9 | – | – | – | –
[2], m1 = 0.0469 | 949.7 | 944.4 | 940.5 | 935.4 | – | – | – | –
[2], m1 = 0.0703 | 951.8 | 946.6 | 942.8 | 937.8 | – | – | – | –
[2], m1 = 0.0938 | 953.9 | 948.8 | 945.1 | 940.1 | – | – | – | –
[2], m1 = 0.1172 | 955.9 | 950.9 | 947.3 | 942.4 | – | – | – | –
[2], m1 = 0.1407 | 957.9 | 953 | 949.5 | 944.5 | – | – | – | –
[2], m1 = 0.1641 | 959.9 | 954.9 | 951.5 | 946.6 | – | – | – | –
[2], m1 = 0.1876 | 961.8 | 956.9 | 953.6 | 948.6 | – | – | – | –
[2], m1 = 0.211 | 963.7 | 958.8 | 955.6 | 950.6 | – | – | – | –
[2], m1 = 0.2345 | 965.4 | 960.7 | 957.5 | 952.5 | – | – | – | –

Cc1ccc(C(=O)N(O)c2ccccc2)cc1[N+](=O)[O-] [N-hydroxy-4-methyl-3-nitro-N-phenylbenzamide] + CN(C)C=O
Settings | mass density, 298.15 K [kg/m3] | mass density, 303.15 K [kg/m3] | mass density, 308.15 K [kg/m3] | mass density, 313.15 K [kg/m3] | refractive index, 298.15 K | refractive index, 303.15 K | refractive index, 308.15 K | refractive index, 313.15 K
[1], m1 = 0.0184 | – | – | – | – | 1.4391 | 1.435 | 1.432 | 1.4299
[1], m1 = 0.0368 | – | – | – | – | 1.4406 | 1.437 | 1.4343 | 1.432
[1], m1 = 0.0551 | – | – | – | – | 1.442 | 1.439 | 1.436 | 1.434
[1], m1 = 0.0735 | – | – | – | – | 1.444 | 1.441 | 1.438 | 1.4354
[1], m1 = 0.0919 | – | – | – | – | 1.447 | 1.4441 | 1.44 | 1.437
[1], m1 = 0.1103 | – | – | – | – | 1.4483 | 1.4455 | 1.442 | 1.439
[1], m1 = 0.1286 | – | – | – | – | 1.4496 | 1.4466 | 1.443 | 1.441
[1], m1 = 0.147 | – | – | – | – | 1.452 | 1.448 | 1.446 | 1.4429
[1], m1 = 0.1654 | – | – | – | – | 1.4535 | 1.45 | 1.448 | 1.444
[1], m1 = 0.1838 | – | – | – | – | 1.455 | 1.452 | 1.4494 | 1.445
[2], m1 = 0.0184 | 947.8 | 942.4 | 938.4 | 933.1 | – | – | – | –
[2], m1 = 0.0368 | 950.2 | 944.9 | 941 | 935.8 | – | – | – | –
[2], m1 = 0.0551 | 952.6 | 947.4 | 943.5 | 938.4 | – | – | – | –
[2], m1 = 0.0735 | 954.8 | 949.7 | 945.9 | 940.9 | – | – | – | –
[2], m1 = 0.0919 | 957 | 952 | 948.2 | 943.3 | – | – | – | –
[2], m1 = 0.1103 | 959.1 | 954.2 | 950.4 | 945.7 | – | – | – | –
[2], m1 = 0.1286 | 961.1 | 956.3 | 952.6 | 947.9 | – | – | – | –
[2], m1 = 0.147 | 963.1 | 958.4 | 954.7 | 950.1 | – | – | – | –
[2], m1 = 0.1654 | 965 | 960.4 | 956.7 | 952.2 | – | – | – | –
[2], m1 = 0.1838 | 966.9 | 962.3 | 958.7 | 954.3 | – | – | – | –
